Values joined by “and” are separate entries in the source; they are usually repeats but may differ in a detail not shown here. Equal entries are not always repeated.
Assays:
CD34+ cells = experiment: In vitro transwell migration assay, CXCL12-induced; format: cell-based, human; settings: CXCL12 100 ng/ml, 4 hours, CD34+ cells after 3-week culture with cytokines+NA, compared to cytokines alone or non-cultured cells
Method: FIG. 2 is a histogram showing the effect of nicotinamide on in-vitro migration of hematopoietic cells. CXCL12 (100 ng/ml)-induced transwell migration of the purified CD34+ cells either before (non-cultured) or after 3-week culture with cytokines and nicotinamide (cytokines+NA) or cytokines alone (cytokines) (n=3, *p<0.02, **p=0.05) was measured as described hereinbelow. Note the enhanced migration of cells cultured in the presence of nicotinamide; Purified CD34+ cells were cultured in culture bags (American Fluoroseal Co., Gaithersburg, Md.) at 1×10^4 cells/ml in MEMα medium, 10% fetal calf serum (FCS) and cytokines: Thrombopoietin (TPO), interleukin-6 (IL-6), FLT-3 ligand and stem cell factor (SCF), each at a final concentration of 50 ng/ml (Perpo Tech, Inc., Rocky Hill, N.J.), with or without 5 mM nicotinamide (NA) (Sigma Aldrich, Milwaukee, Wis.) and incubated at 37° C. in a humidified atmosphere of 5% CO2 in air. […] Until week 3, the cultures were topped weekly with the same volume of fresh medium and then weekly demi-depopulated. Cell counting, colony forming unit (CFUc) assay and immunophenotype analysis were performed as described hereinbelow. […] After 4 hours, cells were collected from both chambers and counted by flow cytometry (FACSsort, Becton Dickinson and Co, San Jose, Calif., USA). […]

[1] = tested on: CD26/dipeptidylpeptidase IV; experiment: FACS analysis of CD26 membranal expression on CD34+ cells after short-term incubation; format: cell-based, human
Method: Cells were obtained from umbilical cord blood after normal full-term delivery (informed consent was given). Samples were collected and frozen according to Rubinstein et al. [Rubinstein et al. Proc Natl Acad Sci USA. 1995; 92 (22):10119-10122.] within 24 h postpartum. Prior to use, the cells were thawed in Dextran buffer (Sigma, St. Louis, Mo., USA) containing 2.5% human serum albumin (HAS, Bayer Corp. Elkhart, Ind., USA), layered on a Ficoll-Hypaque gradient (1.077 g/mL; Sigma), and centrifuged at 800×g for 30 min. The mononuclear cells in the interface layer were collected and washed three times in phosphate-buffered saline (PBS, Biological Industries) containing 0.5% HSA. To purify the CD34+ cells, the mononuclear cell fraction was subjected to two cycles of immunomagnetic bead separation, using a “MiniMACS CD34 progenitor cell isolation kit” (Miltenyi Biotec Bergisch, Gladbach, Germany), according to manufacturer's instructions. The purity of the CD34+ population thus obtained was 95-98%, as evaluated by flow cytometry. Percentages of progenitor cells positive for CD26 were determined by staining of CD34+ cells with anti-CD26 FITC purchased from Becton Dickinson. […] Freshly purified CD34+ cells were FACS analyzed for the expression of CD26 (T-0) then incubated±Nicotinamide 5 mM for 20 hours (T-20 hours) and FACS analyzed again.

NC(=O)c1cccnc1 [nicotinamide]
CXCL12-induced migration (CD34+ cells): significantly higher | reduction of CD26 expression ([1]; 20 hours with Nicotinamide 5 mM, compared to cells without Nicotinamide and to freshly purified CD34+ cells (T-0)): 2-3 fold | CD26+ cells (%) ([1]; freshly purified CD34+ cells incubated with Nicotinamide 5 mM for 20 hours (T-20)): 2.7% and 6%

Reference: patent US8846393B2, “Methods of improving stem cell homing and engraftment” (Gamida-Cell Ltd., priority 2005, dated 2014)
